Experimental findings from PMC11510191, “Exploring Benzo[h]chromene Derivatives as Agents against Protozoal and Mycobacterial Infections” (Pharmaceuticals, 2024) are described below.

What is called CC50 is the concentration at which the toxic effect on the cells reaches its halfway point. A higher CC50 goes with better tolerance by the cells. For orientation: IC50 means the point on the concentration scale where inhibition reaches its midpoint. Usually MIC stands for the smallest concentration in the dilution series that meets the test's criterion for growth inhibition.

The nature of data set [1]: Cytotoxicity on L929 fibroblasts (resazurin). Conditions: mouse. In general terms: The colour change of resazurin is a common sign of viable cells or microbes.
Data set [2] deals with T. cruzi epimastigotes. Nature of the data set: Trypanocidal activity on T. cruzi epimastigotes (CL-B5 lacZ, CPRG). The data set is classed as cell-based, Trypanosoma cruzi clone CL-B5. The following applies: for Selectivity Index L929/ T. cruzi: SI = CC50 L929/IC50 parasites; for IC50: Trypanosoma cruzi, 72 h. On the procedure: For in vitro studies of T. cruzi. the clone CL-B5 was used. Parasites were stably transfected with the Escherichia coli β-galactosidase gene (lacZ), provided by Facultad de Farmacia (Universidad Complutense de Madrid). Epimastigotes were grown at 28 °C in liver infusion tryptose broth (Difco, Detroit, MI, USA) with 10% fetal bovine serum (FBS) (Gibco, Carlsbad, CA, USA), penicillin (Ern S.A., Barcelona, Spain), and streptomycin (Reig Jofré S.A., Barcelona. Spain), as described previously, and harvested during the exponential growth phase. Briefly, the screening assay was performed in 96-well microplates (Sarstedt, Inc., Newton, NC, USA) with cultures that had not reached the stationary phase. Briefly, epimastigotes were seeded at 2 × 10^5 parasites/mL in 200 µL growth media. The plates were then incubated with the respective compounds at 28 °C for 72 h. Afterwards, 50 µL of CPRG solution was added, resulting in a final concentration of 200 µM. The plates were incubated at 37 °C for an additional 4 h and then read at 595 nm. Each concentration was tested in triplicate. […] These values were calculated from the sigmoidal dose–response curve adjustment using the statistical software program Graph-Pad Prims 3.0. Benznidazole was used as a reference drug.

Data set [3] relates to Leishmania brazilensis (L. b) promastigotes. Nature of the data set: Leishmanicidal activity on L. braziliensis promastigotes (resazurin). The following applies: for IC50: Leishmania, 48 h, read-out: Leishmanicidal Activity IC50—L. b.
Method: (§1) The culture of L. braziliensis (MHOM/CO/88/UA301) and L. infantum (MCAN/ES/92/BCN83) was obtained from the Facultad de Farmacia, Universidad Complutense de Madrid, Spain.
(§2) The maintenance of the strains, the form of cultivation, and the isolation of shape promastigota followed the procedures described by Roldós et al. [8]. The promastigotes were grown at 22 °C in Schneider’s Drosophila medium supplemented with 20% FBS. The assay was performed using a modification of a previous method [47]. Promastigotes (2 × 10^6 parasites/well) were cultured in 96-well plastic plates. Compounds were dissolved in dimethylsulfoxide (DMSO). Different dilutions of the compounds up to a 200 µL final volume were added. After 48 h at 26 °C, 20 µL of 2 mM resazurin solution was added and the oxidation–reduction was quantified at 570 and 600 nm. The solution of resazurin was prepared at 2.5 mM in phosphate-buffered solution (PBS), pH 7.4, and filtered through 0.22 µM prior to use. All tests were carried out in triplicate. Resazurin sodium salt was obtained from Sigma–Aldrich (St. Louis, MO, USA) and stored at 4 °C protected from light. The efficacy of each compound was estimated by calculating the IC50 values.
In data set [4] the test system is Leishmania infantum (L. i) promastigotes. The data set can be described thus: Leishmanicidal activity on L. infantum promastigotes (resazurin). Conditions: for IC50: Leishmania infantum, 48 h, read-out: Leishmanicidal Activity IC50—L. i.
Method: as §1, §2
The test system of data set [5] is M. intracellulare LIID-02. Nature of the data set: MIC broth microdilution. The data set is classed as cell-based. Conditions: Mycobacterium intracellulare, LIID02.
Data set [6] has as its system M. intracellulare LIID-01. The data set can be described thus: MIC broth microdilution. The data set is classed as cell-based. The following applies: Mycobacterium intracellulare, LIID01. On the technique in general: In broth dilution the organism is exposed to a series of concentrations in liquid medium.
The subject of data set [7] is M. abscessus LIID-02. Nature of the data set: MIC broth microdilution. The following applies: Mycobacteroides abscessus, LIID02, 72 h. The data set is classed as cell-based.
The test system of data set [8] is M. abscessus LIID-03. The data set can be described thus: MIC broth microdilution. Conditions: Mycobacteroides abscessus, LIID03, 72 h. The data set is classed as cell-based.
Data set [9] has as its system M. abscessus LIID-01. The data set can be described thus: MIC broth microdilution. The format is cell-based. Conditions: Mycobacteroides abscessus, LIID01, 72 h.
The subject of data set [10] is M. fortuitum LIID-01. Nature of the data set: MIC broth microdilution. The format is cell-based. The following applies: Mycolicibacterium fortuitum, LIID01, 72 h.
The subject of data set [11] is M. tuberculosis CIPTIR-F296. Nature of the data set: MIC broth microdilution. The format is cell-based. The following applies: Mycobacterium tuberculosis, CIPTIRF296; M. tuberculosis CIPTIR-F296; read-out: MIC.
Data set [12] relates to M. tuberculosis ATCC H37Rv. The data set can be described thus: MIC broth microdilution. The data set is classed as cell-based. The following applies: Mycobacterium tuberculosis; M. tuberculosis ATCC H37Rv; read-out: MIC.
Data set [13] concerns M. tuberculosis CIPTIR -D152. Nature of the data set: MIC broth microdilution. The data set is classed as cell-based. The following applies: Mycobacterium tuberculosis; M. tuberculosis CIPTIR -D152; read-out: MIC.
The mark [14] stands for this setting: epimastigotes, read-out: Trypanocidal Activity IC50 T. cruzi.

Converted amounts (≈) assume the structure as drawn. Like-named read-outs stand apart in the source and are kept apart here. Where only a bound is given, the exact number is not on record here.

Take `O=C(Cn1ccnc1[N+](=O)[O-])NCc1ccccc1` [Benznidazole, reference compound]: in data set [1], the CC50 at 24 h is 769 µM. Also, the “Selectivity Index L929/ T. cruzi” value in data set [2] was found to be 14.0. Further, the IC50 in data set [2] (setting [14]) is 54.7 µM.

In the case of `C#CCCCC(=O)Oc1c2c(c3ccccc3c1OC(=O)CCCC#C)OC(C)(C)C=C2` [Compound 1b], the values for the IC50 in data set [3], in data set [4] and in data set [2] (setting [14]) were 6.7 µM, 30.5 µM and 37.3 µM, respectively. In addition, the “Selectivity Index L929/ L. b” value in [3] (SI = CC50 L929/IC50 parasites) is 19. Moreover, in data set [4] (SI = CC50 L929/IC50 parasites), the “Selectivity Index L929/ L. i” value was 4. This compound also yielded a CC50 at 24 h in [1] of 128 µM. Besides, in [2], the “Selectivity Index L929/ T. cruzi” value came to 3.

`CC1(C)C=Cc2c(OC(=O)CCc3cn(-c4ccccc4)nn3)c(OC(=O)CCc3cn(-c4ccccc4)nn3)c3ccccc3c2O1` [Compound 2a]: the IC50 in [3] was above 256 µM; in [4] it was above 256 µM; in data set [2] (setting [14]) it was 68.7 µM. In [1], this compound showed a CC50 at 24 h above 256 µM. In addition, in data set [2], the “Selectivity Index L929/ T. cruzi” value is above 4.

On to `COc1ccc(-n2cc(CCC(=O)Oc3c4c(c5ccccc5c3OC(=O)CCc3cn(-c5ccc(OC)cc5)nn3)OC(C)(C)C=C4)nn2)cc1` [Compound 2b], for which the IC50 in [3] is above 256 µM; in data set [4], above 256 µM; in data set [2] (setting [14]), 204 µM. The compound further gave a CC50 at 24 h in [1] above 256 µM. The “Selectivity Index L929/ T. cruzi” value in data set [2] was above 1.

`CC1(C)C=Cc2c(OC(=O)CCc3cn(-c4ccc(Cl)cc4)nn3)c(OC(=O)CCc3cn(-c4ccc(Cl)cc4)nn3)c3ccccc3c2O1` [Compound 2c]: the IC50 in data set [3], in [4] and in [2] (setting [14]) was above 256 µM each time. The compound further gave a CC50 at 24 h in data set [1] above 256 µM.

In the case of `Cc1ccc(-n2cc(CCC(=O)Oc3c4c(c5ccccc5c3OC(=O)CCc3cn(-c5ccc(C)cc5)nn3)OC(C)(C)C=C4)nn2)cc1` [Compound 2d], the IC50 in [3], in data set [4] and in [2] (setting [14]) was above 256 µM throughout. In [1], this compound returned a CC50 at 24 h above 256 µM.

For the compound `CC(=O)O[C@@H]1[C@@H](OC(C)=O)[C@H](OC(C)=O)CO[C@H]1n1cc(CCC(=O)Oc2c3c(c4ccccc4c2OC(=O)CCc2cn([C@@H]4OC[C@@H](OC(C)=O)[C@H](OC(C)=O)[C@H]4OC(C)=O)nn2)OC(C)(C)C=C3)nn1` [Compound 2e], the IC50 in [3], in data set [4] and in data set [2] (setting [14]) was above 256 µM throughout. This compound came in with a CC50 at 24 h in data set [1] above 256 µM.

`CC1(C)C=Cc2c(OC(=O)CCc3cn(-c4cccc(Cl)c4)nn3)c(OC(=O)CCc3cn(-c4cccc(Cl)c4)nn3)c3ccccc3c2O1` [Compound 2g]: the IC50 in data set [3] is above 256 µM; in [4], above 256 µM; in data set [2] (read-out: Trypanocidal Activity IC50 T. cruzi, epimastigotes, 72 h), above 256 µM. Also, in [1], the CC50 at 24 h is above 384 µM.

As to `CC1(C)C=Cc2c(OC(=O)CCc3cn(Cc4ccc([N+](=O)[O-])cc4)nn3)c(OC(=O)CCc3cn(Cc4ccc([N+](=O)[O-])cc4)nn3)c3ccccc3c2O1` [Compound 2h], the IC50 in data set [3], in [4] and in data set [2] (setting [14]) was above 256 µM in each case. In data set [1], the CC50 at 24 h was above 256 µM.

`CC1(C)C=Cc2c(OC(=O)CCc3cn(Cc4ccc(Br)cc4)nn3)c(OC(=O)CCc3cn(Cc4ccc(Br)cc4)nn3)c3ccccc3c2O1` [Compound 2i]: the IC50 in [3], in [4] and in [2] (setting [14]) was above 256 µM throughout. Besides, the CC50 at 24 h in data set [1] was above 256 µM.

For the compound `CC1(C)C=Cc2c(OC(=O)CCCc3cn(-c4ccccc4)nn3)c(OC(=O)CCCc3cn(-c4ccccc4)nn3)c3ccccc3c2O1` [Compound 3a], the IC50 in [3], in [4] and in [2] (setting [14]) was above 256 µM throughout. The CC50 at 24 h in [1] was above 256 µM.

Turning to `COc1ccc(-n2cc(CCCC(=O)Oc3c4c(c5ccccc5c3OC(=O)CCCc3cn(-c5ccc(OC)cc5)nn3)OC(C)(C)C=C4)nn2)cc1` [Compound 3b], the IC50 in data set [3], in data set [4] and in data set [2] (setting [14]) was above 256 µM each time. In data set [1], this compound displayed a CC50 at 24 h above 256 µM.

On to `CC1(C)C=Cc2c(OC(=O)CCCc3cn(-c4ccc(Cl)cc4)nn3)c(OC(=O)CCCc3cn(-c4ccc(Cl)cc4)nn3)c3ccccc3c2O1` [Compound 3c], for which the IC50 in data set [3], in data set [4] and in [2] (setting [14]) was above 256 µM each time. The CC50 at 24 h in data set [1] was above 256 µM.

In the case of `Cc1ccc(-n2cc(CCCC(=O)Oc3c4c(c5ccccc5c3OC(=O)CCCc3cn(-c5ccc(C)cc5)nn3)OC(C)(C)C=C4)nn2)cc1` [Compound 3d], the IC50 in [3], in [4] and in data set [2] (setting [14]) was above 256 µM each time. Also, in data set [1], the CC50 at 24 h is above 256 µM.

Take `CC1(C)C=Cc2c(OC(=O)CCCc3cn(-c4cccc(Cl)c4)nn3)c(OC(=O)CCCc3cn(-c4cccc(Cl)c4)nn3)c3ccccc3c2O1` [Compound 3g]: the IC50 was above 256 µM in data set [3], above 256 µM in data set [4] and 146 µM in data set [2] (setting [14]). In [1], this compound yielded a CC50 at 24 h above 384 µM. Besides, the “Selectivity Index L929/ T. cruzi” value in data set [2] is recorded as above 3.

Regarding `CC1(C)C=Cc2c(OC(=O)CCCc3cn(Cc4ccc(Br)cc4)nn3)c(OC(=O)CCCc3cn(Cc4ccc(Br)cc4)nn3)c3ccccc3c2O1` [Compound 3i], the IC50 in data set [3], in data set [4] and in data set [2] (setting [14]) was above 256 µM throughout. In data set [1], this compound registered a CC50 at 24 h above 256 µM.

Consider `C[C@@H](O)[C@H]1C(=O)N2C(C(=O)O)=C(SCCN=CN)C[C@H]12` [Imipenem, reference compound], for which the MIC in data set [5] is above 64 µg/mL; in data set [6], 1 µg/mL (≈ 3.34 µM); in data set [7], 32 µg/mL (≈ 107 µM); in data set [8], 8 µg/mL (≈ 26.7 µM); in data set [9], 32 µg/mL (≈ 107 µM); in data set [10], 4 µg/mL (≈ 13.4 µM).

For the compound `CC(=O)NC[C@H]1CN(c2ccc(N3CCOCC3)c(F)c2)C(=O)O1` [Linezolid, reference compound], the MIC was 8 µg/mL (≈ 23.7 µM) in data set [5]; 2 µg/mL (≈ 5.93 µM) in [6]; 1 µg/mL (≈ 2.96 µM) in data set [7]; 1 µg/mL (≈ 2.96 µM) in data set [8]; 1 µg/mL (≈ 2.96 µM) in data set [9]; 8 µg/mL (≈ 23.7 µM) in data set [10].

Take `CO[C@H]1/C=C/O[C@@]2(C)Oc3c(C)c(O)c4c(O)c(c(/C=N/N5CCN(C)CC5)c(O)c4c3C2=O)NC(=O)/C(C)=C\C=C\[C@H](C)[C@H](O)[C@@H](C)[C@@H](O)[C@@H](C)[C@H](OC(C)=O)[C@@H]1C` [Rifampicin, reference compound]: the MIC in data set [11] was determined as 1 µg/mL (≈ 1.22 µM); in [12], 2 µg/mL (≈ 2.43 µM); in data set [13] it was 32 µg/mL (≈ 38.9 µM).
